Experimental data taken from patent publication US10849990B2 (priority 2018, dated 2020).

Key:
SPR-KO mice [1] = conditions: mouse, in vivo
VL neurons = assay: In vivo spike recording of spontaneous rebound firing in SPR-KO mice; conditions: mouse
SPR-KO mice [2] = assay: Tremor test in SPR-KO mice; conditions: mouse, in vivo

Structure (SMILES) | motor problems (akinesia, gait disturbance, tremor) (SPR-KO mice [1]) | spontaneous rebound firing of VL neurons (VL neurons) | abnormal motor functions (tremor score) (SPR-KO mice [2])
N[C@@H](Cc1ccc(O)c(O)c1)C(=O)O [L-DOPA] | ameliorated |  | 
CCC1(C)CC(=O)NC1=O (stereo not drawn) [ethosuximide] |  | reduced spontaneous rebound firing | ameliorated
